Data reported in patent publication US20230190769A1, “E PROTEIN CHANNEL BLOCKERS AND ORF3 INHIBITORS AS ANTI-COVID-19 AGENTS” (priority 2020, published 2023).
Where two headings read alike, the source gives them in different places.

Experiments:
Assay type in all cases: cell-based
SARS-CoV-2 E protein [1] = biological target: T1, SARS-CoV-2 E protein (Severe acute respiratory syndrome coronavirus 2, UniProt P0DTC4)
SARS-CoV-2 3a protein = SARS-CoV-2 3a protein (Severe acute respiratory syndrome coronavirus 2, UniProt P0DTC3)
Chain of SARS-CoV-2 3a protein (P0DTC3 whole entry, looked up): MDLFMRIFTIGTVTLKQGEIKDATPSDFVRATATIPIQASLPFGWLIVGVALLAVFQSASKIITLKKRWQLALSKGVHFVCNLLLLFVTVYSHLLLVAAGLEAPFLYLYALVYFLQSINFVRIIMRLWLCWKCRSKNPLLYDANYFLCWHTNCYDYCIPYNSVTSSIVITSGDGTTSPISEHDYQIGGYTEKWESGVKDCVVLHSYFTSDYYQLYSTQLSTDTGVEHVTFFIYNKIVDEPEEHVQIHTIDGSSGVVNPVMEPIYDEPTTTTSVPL

SARS-CoV-2 = settings: for protection, effect on cell survival (FIG. 24 legend): individual 3a protein inhibitor at a concentration of 3 μM; for cell survival (in words): sole compound at 3, FIG. 24; for effectiveness of compounds on their own: sole compounds, protection of cells against viral death
SARS-CoV-2 E protein [2] = biological target: T1, SARS-CoV-2 E protein; remark: listed apart in the source
SARS-CoV-2 E protein [3] = biological target: T1, SARS-CoV-2 E protein; remark: listed apart in the source
[4] = 3000 molecules screened against E protein
[5] = 3,000 molecules screened against 3a protein

T1 sequence (P0DTC4 whole entry, looked up): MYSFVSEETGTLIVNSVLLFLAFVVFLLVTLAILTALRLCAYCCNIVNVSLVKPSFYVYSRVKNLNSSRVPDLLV

In the case of `Nc1ncn([C@@H]2O[C@H](CO)[C@@H](O)[C@H]2O)c(=O)n1` [Azacytidine, 4-Amino-1-β-D-ribofuranosyl-s-triazin-2(1H)-one], the “outcome of screen: SARS-CoV-2 E protein channel blocker” value (SARS-CoV-2 E protein [1]; [4]) is reported as “can be used as SARS-CoV-2 E protein channel blocker”.

For `C1CNCCNCCNCCN1` [Cyclen, 1,4,7,10-Tetraazacyclododecane], the “outcome of screen: SARS-CoV-2 E protein channel blocker” value (SARS-CoV-2 E protein [1]; [4]) was “can be used as SARS-CoV-2 E protein channel blocker”.

For `CCN(CC)CCN(Cc1ccc(-c2ccc(C(F)(F)F)cc2)cc1)C(=O)Cn1c(SCc2ccc(F)cc2)nc(=O)c2c1CCC2` [Darapladib, N-(2-Diethylaminoethyl)-2-[2-[(4-fluorophenyl)methylsulfanyl]-4-oxo-6,7-dihydro-5H-cyclopenta[d]pyrimidin-1-yl]-N-[[4-[4-(trifluoromethyl)phenyl]phenyl]methyl]acetamide], the “outcome of screen: SARS-CoV-2 3a protein inhibitor” value (SARS-CoV-2 3a protein; [5]) was “can be used as SARS-CoV-2 3a protein inhibitor”, the “protection, effect on cell survival (FIG. 24 legend)” value (SARS-CoV-2) was “near full protection” and the “cell survival (in words)” value (SARS-CoV-2) was “full survival”. The “effectiveness of compounds on their own” value (SARS-CoV-2) was “most effective”.

In the case of `O=c1[nH]c(=O)n(C2CC(O)C(CO)O2)cc1F` (stereo not shown) [Floxuridine, 5-Fluoro-1-[4-hydroxy-5-(hydroxymethyl)tetrahydrofuran-2-yl]-1H-pyrimidine-2,4-dione], the “outcome of screen: SARS-CoV-2 3a protein inhibitor” value (SARS-CoV-2 3a protein; [5]) is reported as “can be used as SARS-CoV-2 3a protein inhibitor”.

`Cc1ncc(NC(=O)c2ccc(CN3CCN(C)CC3)c(C(F)(F)F)c2)cc1Nc1nccc(-c2cccnc2)n1` [Flumatinib, 4-[(4-methylpiperazin-1-yl)methyl]-N-[6-methyl-5-[(4-pyridin-3-ylpyrimidin-2-yl)amino]pyridin-3-yl]-3-(trifluoromethyl)benzamide] was tested, and the “outcome of screen: SARS-CoV-2 3a protein inhibitor” value (SARS-CoV-2 3a protein; [5]) was “can be used as SARS-CoV-2 3a protein inhibitor”, the “protection, effect on cell survival (FIG. 24 legend)” value (SARS-CoV-2) was “near full protection” and the “cell survival (in words)” value (SARS-CoV-2) was “near full survival”. For the same compound, the “effectiveness of compounds on their own” value (SARS-CoV-2) was “most effective”.

`Cc1ccc(S(=O)(=O)NC(=O)NN2CC3CCCC3C2)cc1` (stereo not shown) [Gliclazide, 1-(3-azabicyclo(3.3.0)oct-3-yl)-3-(p-tolylsulfonyl)urea] was tested, and the “bacterial growth in negative assay” value (SARS-CoV-2 E protein [2]) was “enhance bacterial growth”, the “bacterial growth in positive assay” value (SARS-CoV-2 E protein [3]) was “inhibited growth” and the “outcome of screen: SARS-CoV-2 E protein channel blocker” value (SARS-CoV-2 E protein [1]; [4]) was “can be used as SARS-CoV-2 E protein channel blocker”.

In the case of `C[C@H]1O[C@H](OC2[C@@H](O)[C@@H](O)C(O)[C@H](O)[C@H]2O)[C@@H](N)C[C@@H]1N=C(N)C(=O)O` (stereo partly drawn) [Kasugamycin, 2-amino-2-[(2R,3 S,5 S,6R)-5-amino-2-methyl-6-[(2R,3 S,5S,6S)-2,3,4,5,6-pentahydroxycyclohexyl]oxyoxan-3-yl]iminoacetic acid], the “outcome of screen: SARS-CoV-2 3a protein inhibitor” value (SARS-CoV-2 3a protein; [5]) is reported as “can be used as SARS-CoV-2 3a protein inhibitor” and the “outcome of screen: SARS-CoV-2 E protein channel blocker” value (SARS-CoV-2 E protein [1]; [4]) is reported as “can be used as SARS-CoV-2 E protein channel blocker”.

In the case of `CCNCCS(=O)(=O)NC[C@@]1(c2ccccc2)SC(NC(=O)C(C)(C)C)=NN1C(=O)C(C)(C)C` [Litronesib, N-[(5R)-4-(2,2-dimethylpropanoyl)-5-[[2-(ethylamino)ethylsulfonylamino]methyl]-5-phenyl-1,3,4-thiadiazol-2-yl]-2,2-dimethylpropanamide], the “outcome of screen: SARS-CoV-2 3a protein inhibitor” value (SARS-CoV-2 3a protein; [5]) is reported as “can be used as SARS-CoV-2 3a protein inhibitor”.

With `NCCCCN(Cc1nc2ccccc2[nH]1)[C@H]1CCCc2cccnc21` [Mavorixafor, N-(1H-benzimidazol-2-ylmethyl)-N-[(8S)-5,6,7,8-tetrahydroquinolin-8-yl]butane-1,4-diamine] the “outcome of screen: SARS-CoV-2 E protein channel blocker” value (SARS-CoV-2 E protein [1]; [4]) was “can be used as SARS-CoV-2 E protein channel blocker”.

With `Cc1cc(C)c(NC(=O)CN(CC(=O)O)CC(=O)O)c(C)c1Br` [Mebrofenin, 2-[[2-(3-bromo-2,4,6-trimethylanilino)-2-oxoethyl]-(carboxymethyl)amino]acetic acid] the “outcome of screen: SARS-CoV-2 E protein channel blocker” value (SARS-CoV-2 E protein [1]; [4]) was “can be used as SARS-CoV-2 E protein channel blocker”.

In the case of `CC12CC3CC(C)(C1)CC(N)(C3)C2` [Memantine, 1-amino-3,5-dimethyladamantane], the “bacterial growth in negative assay” value (SARS-CoV-2 E protein [2]) is reported as “enhance bacterial growth”, the “bacterial growth in positive assay” value (SARS-CoV-2 E protein [3]) is reported as “inhibited growth” and the “outcome of screen: SARS-CoV-2 E protein channel blocker” value (SARS-CoV-2 E protein [1]; [4]) is reported as “can be used as SARS-CoV-2 E protein channel blocker”.

In the case of `N=C(N)c1ccc(OCCCCCOc2ccc(C(=N)N)cc2)cc1` [Pentamidine, 4,4′-[pentane-1,5-diylbis(oxy)]dibenzenecarboximidamide], the “outcome of screen: SARS-CoV-2 3a protein inhibitor” value (SARS-CoV-2 3a protein; [5]) is reported as “can be used as SARS-CoV-2 3a protein inhibitor”.

With `c1cc(CN2CCCNCCNCCCNCC2)ccc1CN1CCCNCCNCCCNCC1` [Plerixafor, 1-[[4-(1,4,8,11-tetrazacyclotetradec-1-ylmethyl)phenyl]methyl]-1,4,8,11-tetrazacyclotetradecane] the “outcome of screen: SARS-CoV-2 3a protein inhibitor” value (SARS-CoV-2 3a protein) was “can be used as SARS-CoV-2 3a protein inhibitor” and the “outcome of screen: SARS-CoV-2 E protein channel blocker” value (SARS-CoV-2 E protein [1]) was “can be used as SARS-CoV-2 E protein channel blocker”.

With `CCO[C@@H](Cc1ccc(OCCn2c(C)ccc2-c2ccc(SC)cc2)cc1)C(=O)O` [Saroglitazar Magnesium, (αS)-α-Ethoxy-4-[2-[2-methyl-5-[4-(methylthio)phenyl]-1H-pyrrol-1-yl]ethoxy]benzenepropanoic Acid] the “outcome of screen: SARS-CoV-2 E protein channel blocker” value (SARS-CoV-2 E protein [1]; [4]) was “can be used as SARS-CoV-2 E protein channel blocker”.

`CN[C@@H]1[C@H](O)[C@H](NC)[C@H]2O[C@@]3(O)C(=O)C[C@@H](C)O[C@H]3O[C@@H]2[C@H]1O` [Spectinomycin] was tested, and the “outcome of screen: SARS-CoV-2 3a protein inhibitor” value (SARS-CoV-2 3a protein; [5]) was “can be used as SARS-CoV-2 3a protein inhibitor”.

Capreomycin was tested, and the “outcome of screen: SARS-CoV-2 3a protein inhibitor” value (SARS-CoV-2 3a protein; [5]) was “can be used as SARS-CoV-2 3a protein inhibitor”.
